Assay results reported in BindingDB's records for doi:10.7270/Q28G8J4C (Broad Institute, 2009).
pEC50: −log10 of the molar value.

The molecules below were run against T1, POsterior Segregation (Caenorhabditis elegans, UniProt G5EF15) (assay: inhibitors of POS-1/mex-3 RNA binding, dose response, biochemical, fluorescence polarization (AID 1964)).
T1 sequence (G5EF15 whole entry): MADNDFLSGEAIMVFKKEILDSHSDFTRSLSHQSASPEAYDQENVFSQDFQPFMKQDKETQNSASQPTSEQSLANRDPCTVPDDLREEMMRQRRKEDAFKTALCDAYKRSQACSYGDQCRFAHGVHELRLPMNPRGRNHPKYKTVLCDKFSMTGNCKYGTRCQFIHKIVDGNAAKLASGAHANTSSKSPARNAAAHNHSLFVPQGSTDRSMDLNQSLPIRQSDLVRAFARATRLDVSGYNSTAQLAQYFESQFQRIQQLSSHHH
In the case of CCn1nc(C)c(C=C2CCCC3=C2OC(=N)C(C#N)C3c2c(C)nn(CC)c2C)c1C (centres undefined) [(8E)-2-amino-4-(1-ethyl-3,5-dimethyl-1H-pyrazol-4-yl)-8-[(1-ethyl-3,5-dimethyl-1H-pyrazol-4-yl)methylene]-5,6,7,8-tetrahydro-4H-chromene-3-carbonitrile], the pEC50 was 4.44. Cc1ccc2c(c1)=C(NNc1ccccc1C)C(=O)N=2 was tested, and the pEC50 was less than 3.52. N#CC1C(=N)OC2=C(C(=O)CCC2)C1c1ccc2c(c1)OCO2 (centres undefined) showed a pEC50 of less than 3.52. Cc1c(NC=C2C(=O)N(C)C(=O)c3ccccc32)c(=O)n(-c2ccccc2)n1C [(4E)-4-[[(1,5-dimethyl-3-oxo-2-phenyl-4-pyrazolyl)amino]methylidene]-2-methylisoquinoline-1,3-dione] was tested, and the pEC50 was less than 3.52. COc1ccc(OC)c(C2C(C(=O)c3ccco3)C(=O)C(=O)N2CCN2CCOCC2)c1 (centres undefined) [2-(2,5-dimethoxyphenyl)-3-(furan-2-carbonyl)-4-hydroxy-1-(2-morpholin-4-ylethyl)-2H-pyrrol-5-one] was tested, and the pEC50 was less than 3.52. COc1ccc(C2C(C(=O)c3ccco3)C(=O)C(=O)N2c2nnc(C)s2)cc1 (centres undefined) [3-(furan-2-carbonyl)-4-hydroxy-2-(4-methoxyphenyl)-1-(5-methyl-1,3,4-thiadiazol-2-yl)-2H-pyrrol-5-one] showed a pEC50 of 3.96. In the case of CCOc1ccc(N=C(C(=C(Cl)C(Cl)Cl)[N+](=O)[O-])n2cncn2)cc1 [MLS000519210], the pEC50 was 4.33. With Oc1ccc(CN=Nc2ncnc3nc[nH]c23)cc1 [SMR000320358] the pEC50 was less than 3.52. For C=CC1=C(C(=O)O)N2C(=O)[C@@H](NC(=O)C(N=O)c3csc(N)n3)[C@H]2SC1 (stereo partly drawn) [(6R,7R)-7-[[2-(2-azanyl-1,3-thiazol-4-yl)-2-hydroxyimino-ethanoyl]amino]-3-ethenyl-8-oxidanylidene-5-thia-1-azabicyclo[4.2.0]oct-2-ene-2-carboxylic acid], the pEC50 was 4.30. Work on C[C@H]1c2cccc(O)c2C(=O)C2C(=O)[C@]3(O)C(=O)C(C(N)=O)C(=O)[C@@H](N(C)C)[C@@H]3[C@@H](O)[C@@H]21 (some centres undefined) yielded a pEC50 of less than 3.52. Work on COc1ccc(C2C3=C(CCCC3=O)OC(=N)C2C#N)c(OC)c1OC (centres undefined) [2-Amino-5-oxo-4-(2,3,4-trimethoxy-phenyl)-5,6,7,8-tetrahydro-4H-chromene-3-carbonitrile] yielded a pEC50 of less than 3.52. In the case of COc1cc(C2C3=C(CCCC3=O)OC(=N)C2C#N)cc(OC)c1OC(=O)N1CCOCC1 (centres undefined) [4-(2-amino-3-cyano-5-oxo-5,6,7,8-tetrahydro-4H-chromen-4-yl)-2,6-dimethoxyphenyl morpholine-4-carboxylate], the pEC50 was less than 3.52. [H]/N=C1/OC23CCCCC2C(C#N)(C#N)C1(C#N)C(c1ccc(OC)cc1)O3 (centres undefined) [MLS000554241] showed a pEC50 of 4.90. CC1(C)c2[nH]c3ccccc3c2Cc2c(O)n(-c3ccc(F)cc3F)c(=O)n21 [MLS001065879] showed a pEC50 of less than 3.52. In the case of COc1ccc(NC=C2C(=O)NC(=S)N(Cc3ccccc3)C2=O)c(OC)c1 [1-Benzyl-5-[1-(2,4-dimethoxy-phenylamino)-meth-(Z)-ylidene]-2-thioxo-dihydro-pyrimidine-4,6-dione], the pEC50 was less than 3.52. For CC(C)c1ccc(C2C(C#N)=C3Sc4ccccc4N3C(=N)C2C#N)cc1 (centres undefined) [1-amino-3-(4-propan-2-ylphenyl)-3H-pyrido[2,1-b][1,3]benzothiazole-2,4-dicarbonitrile], the pEC50 was 4.48. For Cc1ccc(N=CCC(=O)c2sc(-c3ccccc3)nc2C)cc1 [(E)-1-(4-methyl-2-phenyl-1,3-thiazol-5-yl)-3-(4-toluidino)-2-propen-1-one], the pEC50 was 4.33. With Nc1c(-c2nc3ccccc3[nH]2)c(O)cn1-c1ccc(CC(=O)O)cc1 [MLS000565528] the pEC50 was 5.28. Molecule COc1cc(CN=Nc2ccc([N+](=O)[O-])cc2)ccc1OCC(=O)Nc1ccc(C)c(C)c1 [MLS000537060] has a pEC50 of less than 3.52. O=C(O)c1cc(-c2ccc(CN=Nc3ccc([N+](=O)[O-])cn3)o2)ccc1Cl [2-chloro-5-[5-[[(5-nitropyridin-2-yl)hydrazinylidene]methyl]furan-2-yl]benzoic acid] showed a pEC50 of 4.51. In the case of O=C(N/N=C/C1C=C(Cl)C=C([N+](=O)[O-])C1=O)c1ccccc1NS(=O)(=O)c1cccs1 (centres undefined) [SMR000364876], the pEC50 was 3.55. For Cc1ncc(C=O)c(CNNC(=O)c2cc(Br)ccc2O)c1O [5-bromanyl-N'-[(Z)-[5-(hydroxymethyl)-2-methyl-3-oxidanylidene-pyridin-4-ylidene]methyl]-2-oxidanyl-benzohydrazide], the pEC50 was less than 3.52. CC(=O)N1CCN(c2ccc(NC=C3C(=O)NC(=O)N(Cc4ccccc4)C3=O)cc2)CC1 [MLS000041641] showed a pEC50 of less than 3.52. In the case of Cc1ccc(NC=C2SC(=O)c3ccccc32)c(C)c1 [(3Z)-3-[(2,4-dimethylanilino)methylene]isobenzothiophen-1-one], the pEC50 was less than 3.52. With Cc1ccc(-c2c(CCC(C)N=O)oc3ccc(Cl)cc23)o1 (centres undefined) [4-[5-chloro-3-(5-methyl-2-furanyl)-2-benzofuranyl]-2-butanone oxime] the pEC50 was less than 3.52. Cc1ccc(C(=O)Cc2nc3ccccc3oc2=O)cc1 [(3Z)-3-[2-(4-methylphenyl)-2-oxidanylidene-ethylidene]-4H-1,4-benzoxazin-2-one] was tested, and the pEC50 was less than 3.52. For Cc1c(C(=O)NN=Cc2ccco2)[nH][nH]c1=O, the pEC50 was less than 3.52. O=C(Cc1nc2cc([N+](=O)[O-])ccc2[nH]c1=O)c1ccccc1 [6-Nitro-3-(2-oxo-2-phenyl-ethylidene)-3,4-dihydro-1H-quinoxalin-2-one] showed a pEC50 of 4.70. With C=CCSc1nnc(N2C(=O)C(=O)C(C(=O)c3ccco3)C2c2ccc(F)cc2)s1 (centres undefined) [1-[5-(allylthio)-1,3,4-thiadiazol-2-yl]-5-(4-fluorophenyl)-4-(2-furoyl)-3-hydroxy-3-pyrrolin-2-one] the pEC50 was 3.94. Molecule CC1(C)CC(=O)C2=C(C1)OC(=N)C(C#N)C2c1ccc2c(c1)OCO2 (centres undefined) [SMR000514966] has a pEC50 of less than 3.52. For CC1=C(C#N)C(=O)N(C)C(=O)C1=CN [(5Z)-5-(aminomethylidene)-1,4-dimethyl-2,6-dioxopyridine-3-carbonitrile], the pEC50 was less than 3.52. Molecule N#CCC(=N)C(C#N)C#N [1,1,3-tricyano-2-amino-1-propene] has a pEC50 of 4.26. For CSc1ccc(C2C(C(=O)c3ccco3)C(=O)C(=O)N2c2nnc(SC)s2)cc1 (centres undefined) [3-(furan-2-carbonyl)-4-hydroxy-2-(4-methylsulfanylphenyl)-1-(5-methylsulfanyl-1,3,4-thiadiazol-2-yl)-2H-pyrrol-5-one], the pEC50 was 5.17. COc1cc(OC)c(C2C3=C(CC(C)(C)CC3=O)OC(=N)C2C#N)cc1OC (centres undefined) [SMR000054706] gave a pEC50 of less than 3.52. Work on O=C1N=C(N2C=CC(c3ccncc3)C=C2)C(=CN=NC(=O)c2ccccc2O)S1 [SMR000646350] yielded a pEC50 of 4.92. C=CCn1c(=O)c(=Cc2ccsc2)s/c1=C(\C#N)C(=O)NCCN1CCOCC1 [2-[3-allyl-4-keto-5-(3-thenylidene)thiazolidin-2-ylidene]-2-cyano-N-(2-morpholinoethyl)acetamide] showed a pEC50 of 5.19. Molecule O=C1N=C(O)C(C2=c3cc([N+](=O)[O-])ccc3=NC2=O)S1 (centres undefined) [MLS001163276] has a pEC50 of 4.88. Molecule O=C(NN=CC1=CC(=O)C(=O)CC1)NN=CC1=CC(=O)C(=O)CC1 [1,3-bis[[(Z)-(3-hydroxy-4-oxocyclohexa-2,5-dien-1-ylidene)methyl]amino]urea] has a pEC50 of 4.79. CCN(CC)CCNC=C1C(=O)NC(=O)N(CCc2ccccc2)C1=O [(5E)-5-[[2-(diethylamino)ethylamino]methylene]-1-phenethyl-barbituric acid] gave a pEC50 of less than 3.52.
